Assays:
MDA-MB-453 [1] = conditions: 72 h
Procedure, shortened: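 Rows with a drug sensitivity score of zero were dropped, and EC50 was taken from the fitted percent-inhibition dose-response curve, censored at the highest concentration. Data were normalised on each plate to vehicle and a positive kill control and checked by Z'-factor. The assay seeded breast cancer cell lines in 20 µl onto 384-well plates pre-loaded with compound in 5 µl medium for 72 h, then added 2.5 µl CellTiter-Blue for 2 h at 37 °C and read fluorescence at 560/590 nm.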

CAL-148 [2] = experiment: normalised viability (% of control), CellTiter-Blue; higher = more viable cells (about 100 = DMSO control); conditions: incubation time: 72 h
Procedure, shortened: (§1)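 The reported figure is normalised viability at a single listed concentration of the series. Breast cancer cell lines (20 µl suspension) went onto 384-well plates holding compound in 5 µl medium for 72 h. CellTiter-Blue (2.5 µl, 2 h, 37 °C) was read by fluorescence at 560/590 nm, and each plate was scaled to vehicle at 100 and a positive kill control at 0.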

MDA-MB-453 [3] = experiment: as above; conditions: incubation time: 72 h
Procedure, shortened: as §1

BT-474 = experiment: normalised viability (% of control), CellTiter-Blue; higher = more viable cells (about 100 = DMSO control); conditions: incubation time: 72 h
Description: (§2)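 DSRT, CellTiter-Blue viability, 72 h incubation. Signal is normalised to DMSO and benzethonium chloride controls. Value is the normalised response at dose 3.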

BT-549 = experiment: as above; conditions: incubation time: 72 h
Description: as §2

CAL-120 = experiment: as above; conditions: incubation time: 72 h
Description: as §2

CAL-148 [4] = experiment: as above; conditions: incubation time: 72 h; remark: listed apart in the source
Description: as §2

CAL-51 [5] = experiment: as above; conditions: incubation time: 72 h
Description: as §2

CAL-85-1 [6] = experiment: as above; conditions: incubation time: 72 h
Description: as §2

DU-4475 [7] = experiment: as above; conditions: incubation time: 72 h
Description: as §2

HCC1143 = experiment: as above; conditions: incubation time: 72 h
Description: as §2

HCC1599 = experiment: as above; conditions: incubation time: 72 h
Description: as §2

HCC1937 = experiment: as above; conditions: incubation time: 72 h
Description: as §2

HDQ-P1 [8] = experiment: as above; conditions: incubation time: 72 h
Description: as §2

Hs578T = experiment: as above; conditions: incubation time: 72 h
Description: as §2

MDA-MB-231 = experiment: as above; conditions: incubation time: 72 h
Description: as §2

MDA-MB-436 = experiment: as above; conditions: incubation time: 72 h
Description: as §2

MDA-MB-453 [9] = experiment: as above; conditions: incubation time: 72 h; remark: listed apart in the source
Description: as §2

MDA-MB-468 = experiment: as above; conditions: incubation time: 72 h
Description: as §2

MFM-223 = experiment: as above; conditions: incubation time: 72 h
Description: as §2

SK-BR-3 = experiment: as above; conditions: incubation time: 72 h
Description: as §2

CAL-148 [10] = experiment: as above; conditions: incubation time: 72 h; remark: listed apart in the source
Description: (§3)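 DSRT, CellTiter-Blue viability, 72 h incubation. Signal is normalised to DMSO and benzethonium chloride controls. Value is the normalised response at dose 6.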

CAL-51 [11] = experiment: as above; conditions: incubation time: 72 h; remark: listed apart in the source
Description: as §3

CAL-85-1 [12] = experiment: as above; conditions: incubation time: 72 h; remark: listed apart in the source
Description: as §3

DU-4475 [13] = experiment: as above; conditions: incubation time: 72 h; remark: listed apart in the source
Description: as §3

HDQ-P1 [14] = experiment: as above; conditions: incubation time: 72 h; remark: listed apart in the source
Description: as §3

MDA-MB-453 [15] = experiment: as above; conditions: incubation time: 72 h; remark: listed apart in the source
Description: as §3

CAL-148 [16] = experiment: as above; conditions: incubation time: 72 h; remark: listed apart in the source
Description: (§4)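 DSRT, CellTiter-Blue viability, 72 h incubation. Signal is normalised to DMSO and benzethonium chloride controls. Value is the normalised response at dose 9.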

CAL-51 [17] = experiment: as above; conditions: incubation time: 72 h; remark: listed apart in the source
Description: as §4

HDQ-P1 [18] = experiment: as above; conditions: incubation time: 72 h; remark: listed apart in the source
Description: as §4

MDA-MB-453 [19] = experiment: as above; conditions: incubation time: 72 h; remark: listed apart in the source
Description: as §4

O=C1NC(=O)[C@@H](c2cn3c4c(cccc24)CCC3)[C@@H]1c1c[nH]c2ccccc12 [Tivantinib]
Conditions	EC50, CellTiter-Blue viability [nM]
MDA-MB-453 [1]	169

Conditions	normalised viability [%]
BT-474, 10 nM	109
BT-549, 10 nM	111
CAL-51 [5], 1 nM	106
CAL-51 [11], 30 nM	104
CAL-51 [17], 1000 nM	21.1
CAL-85-1 [6], 1 nM	105
CAL-85-1 [12], 30 nM	95.8
CAL-120, 10 nM	90.8
CAL-148 [2], 10 nM	97.9
CAL-148 [4], 1 nM	107
CAL-148 [10], 30 nM	104
CAL-148 [16], 1000 nM	30.5
DU-4475 [7], 1 nM	97.8
DU-4475 [13], 30 nM	87.3
HCC1143, 10 nM	87.8
HCC1599, 10 nM	98.4
HCC1937, 10 nM	101
HDQ-P1 [8], 1 nM	109
HDQ-P1 [14], 30 nM	55.3
HDQ-P1 [18], 1000 nM	53
Hs578T, 10 nM	86.5
MDA-MB-231, 10 nM	116
MDA-MB-436, 10 nM	101
MDA-MB-453 [3], 10 nM	107
MDA-MB-453 [9], 1 nM	108
MDA-MB-453 [15], 30 nM	107
MDA-MB-453 [19], 1000 nM	31
MDA-MB-468, 10 nM	104
MFM-223, 10 nM	105
SK-BR-3, 10 nM	77.3

CC[C@]1(O)C[C@H]2CN(CCc3c([nH]c4ccccc34)[C@@](C(=O)OC)(c3cc4c(cc3OC)N(C=O)[C@H]3[C@@](O)(C(=O)OC)[C@H](OC(C)=O)[C@]5(CC)C=CCN6CC[C@]43[C@@H]65)C2)C1 [Vincristine]
Conditions	EC50, CellTiter-Blue viability [nM]
MDA-MB-453 [1]	3.57

Conditions	normalised viability [%]
BT-474, 10 nM	46.2
BT-474, 100 nM	57.2
BT-549, 10 nM	29.3
BT-549, 100 nM	25.2
CAL-51 [5], 1 nM	108
CAL-51 [5], 10 nM	87.8
CAL-51 [11], 30 nM	42.3
CAL-51 [11], 300 nM	12.6
CAL-51 [17], 1000 nM	11.7
CAL-51 [17], 10000 nM	10.7
CAL-85-1 [6], 1 nM	96.5
CAL-85-1 [6], 10 nM	61.1
CAL-85-1 [12], 30 nM	34.9
CAL-85-1 [12], 300 nM	39.6
CAL-120, 10 nM	22.9
CAL-120, 100 nM	20
CAL-148 [2], 10 nM	21.4
CAL-148 [2], 100 nM	20.6
CAL-148 [4], 1 nM	91.3
CAL-148 [4], 10 nM	90.2
CAL-148 [10], 30 nM	16.5
CAL-148 [10], 300 nM	24.5
CAL-148 [16], 1000 nM	21.8
CAL-148 [16], 10000 nM	28.5
DU-4475 [7], 1 nM	102
DU-4475 [7], 10 nM	78.8
DU-4475 [13], 30 nM	36.9
DU-4475 [13], 300 nM	12
HCC1143, 10 nM	34.2
HCC1143, 100 nM	40.4
HCC1599, 10 nM	93.5
HCC1599, 100 nM	51.1
HCC1937, 10 nM	33.6
HCC1937, 100 nM	17.8
HDQ-P1 [8], 1 nM	109
HDQ-P1 [8], 10 nM	90.7
HDQ-P1 [14], 30 nM	33.5
HDQ-P1 [14], 300 nM	27.9
HDQ-P1 [18], 1000 nM	41.5
HDQ-P1 [18], 10000 nM	37.9
Hs578T, 10 nM	16.6
Hs578T, 100 nM	19.3
MDA-MB-231, 10 nM	29.5
MDA-MB-231, 100 nM	16.1
MDA-MB-436, 10 nM	52.4
MDA-MB-436, 100 nM	44.9
MDA-MB-453 [3], 10 nM	26.9
MDA-MB-453 [3], 100 nM	30.8
MDA-MB-453 [9], 1 nM	103
MDA-MB-453 [9], 10 nM	31.6
MDA-MB-453 [15], 30 nM	29.2
MDA-MB-453 [15], 300 nM	34.2
MDA-MB-453 [19], 1000 nM	38.5
MDA-MB-453 [19], 10000 nM	41.6
MDA-MB-468, 10 nM	50.6
MDA-MB-468, 100 nM	32.1
MFM-223, 10 nM	59.8
MFM-223, 100 nM	39.5
SK-BR-3, 10 nM	15.6
SK-BR-3, 100 nM	15.8
